# Reference: patent US11021481B2, “Substituted isoindolin-1-ones and 2,3-dihydro-1h-pyrrolo[3,4-c]pyridin-1-ones as HPK1 antagonists” (Nimbus Saturn, Inc., priority 2019, dated 2021)
# Target: HPK1 (Homo sapiens (Human), UniProt Q92918)
# Assay: HPK1 biochemical enzyme assay (microfluidic mobility shift assay)
# Settings: 1.5 nM HPK1, ATP 1 mM final, 30 min preincubation, 60 min at RT, Caliper EZ Reader; read-out: HPK1 1000UMATP caliper IC50
# Method in brief: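 Mobility shift readout of HPK1 activity after a 60 min RT reaction with 1 mM ATP, 1 μM substrate and 5 mM MgCl2. Enzyme/substrate mix was first exposed to compounds for 30 min, using ten-point curves topping at 3 μM final.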
# Sequence of HPK1 (Q92918 whole entry): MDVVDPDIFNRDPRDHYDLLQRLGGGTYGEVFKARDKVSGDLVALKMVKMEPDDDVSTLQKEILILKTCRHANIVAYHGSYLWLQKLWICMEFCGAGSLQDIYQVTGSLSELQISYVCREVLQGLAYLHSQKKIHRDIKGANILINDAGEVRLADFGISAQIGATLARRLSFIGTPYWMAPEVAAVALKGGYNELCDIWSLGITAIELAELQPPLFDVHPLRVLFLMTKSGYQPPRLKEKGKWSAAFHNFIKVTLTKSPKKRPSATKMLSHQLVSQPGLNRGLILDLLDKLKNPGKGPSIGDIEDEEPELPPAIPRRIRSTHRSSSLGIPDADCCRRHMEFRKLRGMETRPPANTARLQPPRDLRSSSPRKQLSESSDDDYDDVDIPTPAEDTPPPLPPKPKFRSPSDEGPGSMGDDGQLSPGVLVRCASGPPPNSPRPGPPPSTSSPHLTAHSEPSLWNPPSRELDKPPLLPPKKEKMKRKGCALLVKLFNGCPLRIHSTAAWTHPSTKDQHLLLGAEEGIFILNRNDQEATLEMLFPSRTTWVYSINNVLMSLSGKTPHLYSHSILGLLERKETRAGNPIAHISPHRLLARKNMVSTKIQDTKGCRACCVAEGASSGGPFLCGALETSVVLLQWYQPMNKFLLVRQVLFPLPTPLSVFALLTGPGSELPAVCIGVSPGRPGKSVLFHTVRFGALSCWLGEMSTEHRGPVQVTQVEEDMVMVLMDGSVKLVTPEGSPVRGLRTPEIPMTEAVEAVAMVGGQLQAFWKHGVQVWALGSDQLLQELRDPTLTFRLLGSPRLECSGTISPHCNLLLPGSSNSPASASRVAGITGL
row,Compound,IC50
1,"Cn1ccc2c(-c3ccc(Nc4ccc(N5CCC[C@@H](O)C5)cn4)c4c3CNC4=O)ccnc21 [I-121, 7-[[5-[(3R)-3-hydroxy-1-piperidyl]-2-pyridyl]amino]-4-(1-methylpyrrolo [2,3-b]pyridin-4-yl)isoindolin-1-one]",< 100 nM
2,"Cc1c[nH]c2nccc(-c3ncc(Nc4ccc(N5CCN(C)CC5)cn4)c4c3CNC4=O)c12 [I-19, 7-[[5-(4-methylpiperazin-1-yl)-2-pyridyl]amino]-4-(3-methyl-1H-pyrrolo[2,3-b]pyridin-4-yl)-2,3-dihydropyrrolo [3,4-c]pyridin-1-one]",< 100 nM
3,"CN1CCN(c2ccc(Nc3ccc(-c4cnc5cnccn45)c4c3C(=O)NC4)nc2)CC1 [I-76, 4-imidazo[1,2-a]pyrazin-3-yl-7-[[5-(4-methylpiperazin-1-yl)-2-pyridyl]amino] isoindolin-1-one]",< 100 nM
4,"CN1CCN(c2ccc(Nc3cnc(-c4c[nH]c5ccncc45)c4c3C(=O)NC4)nc2)CC1 [I-13, 7-[[5-(4-methylpiperazin-1-yl)-2-pyridyl]amino]-4-(1H-pyrrolo[3,2-c]pyridin-3-yl)-2,3-dihydropyrrolo [3,4-c]pyridin-1-one]",100 to 1000 nM
5,"Cn1ccc2c(-c3ccc(Nc4ccc(N5CCC(O)CC5)cn4)c4c3CNC4=O)cnc-2c1 [I-362, 7-((5-(4-hydroxy-piperidin-1-yl)pyridin-2-yl)amino)-4-(6-methyl-6H-pyrrolo[2,3-c]pyridin-3-yl)isoindolin-1-one]",< 100 nM
6,"CNC1CCN(c2cccc(Nc3cnc(-c4ccnc5c4ccn5C)c4c3C(=O)NC4)n2)CC1 [I-228, 7-[[6-[4-(methylamino)-1-piperidyl]-2-pyridyl]amino]-4-(1-methylpyrrolo [2,3-b]pyridin-4-yl)-2,3-dihydropyrrolo [3,4-c]pyridin-1-one]",100 to 1000 nM
7,"CN(C)C(C)(C)C1CCCN(c2ccc(Nc3ccc(-c4cnc5cc(F)ccn45)c4c3C(=O)NC4)nc2)C1 (stereo in doubt) [I-606, (R)-7-((5-(3-(2-(dimethylami-no)propan-2-yl)piperidin-1-yl)pyridin-2-yl)amino)-4-(7-fluoroimidazo [1,2-a]pyridin-3-yl)isoindolin-1-one]",< 100 nM
8,"CN(C)Cc1nc(Nc2ccc(-c3cnc4cc(F)ccn34)c3c2C(=O)NC3)ccc1N1CCC[C@H](C(C)(C)O)C1 [I-746, (S)-7-((6-((dimethylamino)-methyl)-5-(3-(2-hydroxypropan-2-yl)piperidin-1-yl)pyridin-2-yl)amino)-4-(7-fluoroimidazo [1,2-a]pyridin-3-yl)isoindolin-1-one]",< 100 nM
9,"Cn1cc(-c2ccc(Nc3ccc(N4CCC(O)CC4)cn3)c3c2CNC3=O)c2cnncc21 [I-425, 7-((5-(4-hydroxy-piperidin-1-yl)pyridin-2-yl)amino)-4-(1-methyl-1H-pyrrolo[2,3-d]pyridazin-3-yl)isoindolin-1-one]",< 100 nM
10,"CN1CCN(c2ccc(Nc3cnc(-c4c[nH]c5ncccc45)c4c3C(=O)NC4)nc2)CC1 [I-6, 7-((5-(4-Methylpiperazin-1-yl)pyridin-2-yl)amino)-4-(1H-pyrrolo[2,3-b]pyridin-3-yl)-2,3-dihydro-1H-pyrrolo[3,4-c]pyridin-1-one]",< 100 nM
11,"Cn1ccc2c(-c3ncc(Nc4ccc(N5CCC[C@H](C(C)(C)O)C5)cn4)c4c3CNC4=O)ccnc21 [I-211, 7-[[5-[(3S)-3-(1-hydroxy-1-methyl-ethyl)-1-piperidyl]-2-pyridyl]-amino]-4-(1-methylpyrrolo [2,3-b]pyridin-4-yl)-2,3-dihydropyrrolo [3,4-c]pyridin-1-one]",< 100 nM
12,"Cn1ccc2c(-c3ccc(Nc4ccc(N5CCC(O)CC5)cn4)c4c3CNC4=O)cnc-2n1 [I-426, 7-((5-(4-hydroxy-piperidin-1-yl)pyridin-2-yl)amino)-4-(2-methyl-2H-pyrrolo[2,3-c]pyridazin-5-yl)isoindolin-1-one]",< 100 nM
13,"CC(C)(O)[C@@H]1CCCN(c2ccc(Nc3cnc(-c4cnc5cc(F)ccn45)c4c3C(=O)NC4)nc2)C1 [I-226, (R)-4-(7-fluoroimidazo[1,2-a]pyridin-3-yl)-7-((5-(3-(2-hydroxypropan-2-yl)piperidin-1-yl)pyridin-2-yl)amino)-2,3-dihydro-1H-pyrrolo[3,4-c]pyridin-1-one]",100 to 1000 nM
14,"O=C1NCc2c(-c3cnc4cnccn34)ccc(Nc3ccc(N4CCCC(O)CC4)cn3)c21 (stereo not drawn) [I-301, 7-((5-(4-hydroxyaze-pan-1-yl)pyridin-2-yl)amino)-4-(imidazo[1,2-a]pyrazin-3-yl)isoindolin-1-one]",< 100 nM
15,"COCC1(O)CCN(c2ccc(Nc3ccc(-c4cnc5cc(F)ccn45)c4c3C(=O)NC4)nc2CN(C)C)CC1 [I-782, 7-((6-((dimethylamino)-methyl)-5-(4-hydroxy-4-(methoxymeth-yl)piperidin-1-yl)pyridin-2-yl)amino)-4-(7-fluoroimidazo [1,2-a]pyridin-3-yl)isoindolin-1-one]",< 100 nM
16,"O=C1NCc2c(-c3cnn4ccccc34)ncc(Nc3ccc(N4CCC(O)CC4)cn3)c21 [I-464, 7-[[5-(4-hydroxy-1-piperidyl)-2-pyridyl]amino] 4-pyrazolo[1,5-a]pyridin-3-yl-2,3-dihydropyrrolo [3,4-c]pyridin-l-one]",< 100 nM
17,COC[C@H]1CN(c2ccc(Nc3cnc(-c4ccnc5c4ccn5C)c4c3C(=O)NC4)nc2)CC[C@@H]1O [I-414],< 100 nM
18,"CN1CCN(c2ccc(Nc3ccc(-c4c(F)cnc5c4ccn5C)c4c3C(=O)NC4)nc2)CC1 [I-67, 4-(5-fluoro-1-methyl-pyrrolo[2,3-b]pyridin-4-yl)-7-[[5-(4-methylpiperazin-1-yl)-2-pyridyl]amino] isoindolin-1-one]",< 100 nM
19,"CN1C[C@@H]2CCN(c3cccc(Nc4cnc(-c5ccnc6c5ccn6C)c5c4C(=O)NC5)n3)[C@@H]2C1 [I-630, 4-(1-methyl-1H-pyrrolo[2,3-b]pyridin-4-yl)-7-((6-((3aS, 6aS)-5-methylhexahy-dropyrrolo[3,4-b]pyrrol-1(2H)-yl)pyridin-2-yl)amino)-2,3-dihydro-1H-pyrrolo[3,4-c]pyridin-1-one]",< 100 nM
20,"C[C@H]1NC(=O)c2c(Nc3ccc(N4CCC(O)CC4)cn3)ccc(-c3cnc4ccccn34)c21 [I-317, (R)-7-((5-(4-hydroxy-piperidin-1-yl)pyridin-2-yl)amino)-4-(imidazo[1,2-a]pyridin-3-yl)-3-methylisoindo-lin-1-one]",< 100 nM
21,"CO[C@@]1(CN(C)C)CCCN(c2ccc(Nc3ccc(-c4cnc5cc(F)ccn45)c4c3C(=O)NC4)nc2)C1 [I-611, (R)-7-((5-(3-((dimethylamino)-methyl)-3-methoxy-piperidin-1-yl)pyridin-2-yl)amino)-4-(7-fluoroimidazo [1,2-a]pyridin-3-yl)isoindolin-1-one]",< 100 nM
22,"C[C@H](O)[C@@H]1CN(c2ccc(Nc3ccc(-c4cnc5cc(F)ccn45)c4c3C(=O)NC4)nc2)CCO1 (single isomer, unassigned) [I-620]",< 100 nM
23,"Cc1cc(-c2ccc(Nc3ccc(N4CCN(C)CC4)cn3)c3c2CNC3=O)c2cc[nH]c2n1 [I-77, 7-[[5-(4-methylpiperazin-1-yl)-2-pyridyl]amino]-4-(6-methyl-1H-pyrrolo[2,3-b]pyridin-4-yl)isoindolin-1-one]",100 to 1000 nM
24,"O=C1NCc2c(-c3cnc4ccccn34)ccc(Nc3ccc(N4CCCNCC4)cn3)c21 [I-104, 7-[[5-(l,4-diazepan-1-yl)-2-pyridyl]amino]-4-imidazo[1,2-a]pyridin-3-yl-isoindolin-1-one]",< 100 nM
